Patent publication US20090022739A1, “MODULATING THE KV1.1 VOLTAGE-GATED POTASSIUM CHANNEL IN T-CELLS FOR REGULATING THE […] AND SECRETION OF TUMOR NECROSIS FACTOR ALPHA (tnf-ALPHA) AND TREATING HUMAN DISEASE OR INJURIES MEDIATED BY […] HIGH OR LOW LEVELS OF TNF-ALPHA” (priority 2005, published 2009)
Read-outs that look alike come from different tables or passages of the source.

Key:
[1] = tested on: normal human T-cells; assay type: cell-based
Description: Human T-Cells: Normal human T-cells were purified from peripheral blood of healthy donors as described (Levite et al, 2000; Ganor et al, 2003; Levite t al, 1998), and the resulting cell population, containing ≧90% T-cells, was suspended in RPMI medium supplemented with 10% FCS, 1% L-Glutamine and antibiotics (Biological Industries, Bet Haemek, Israel) and maintained at 2×10^6 cells/ml (37° C./5% CO2).
Determination of TNF-α, IFN-γ, IL-10 and IL-4 by ELISA: Freshly-purified normal resting human T-cells (2×10^6/ml) were incubated in 24-well plates (Costar, Corning, N.Y.) and the various channel blockers were added. […] Cytokine levels were measured in supernatants after 24 hours for TNF-α and IFN-γ and after 72 hours for IL-10 and IL-4, by quantitative sandwich ELISA (R&D, Minneapolis, Minn.), according to the manufacturer's instructions. […]
These 12 blockers were selected on the basis of their reported ability to block most types of K^+, Na^+, Ca^2+ and Cl^− channels expressed in T-cells (Deutsch et al, 1986; Lewis et al, 1995; Lewis et al, 1988; Rader et al, 1996; Freedman et al, 1995; Koo et al, 1997; Lin et al, 1993; Ishida et al, 1993; Jensen et al, 1999; Kotturi et al, 2003; Phipps et al, 1996; Verheugen et al, 1997; Levite et al, 2000; Chandy et al, 1984). The levels of TNFα secreted into the culture media were tested 24 hours later by ELISA. For positive control, the cells were exposed to the potent phorbol ester PMA, know to activate T-cells in a non-specific manner. The results are shown in FIG. 1A and represent fold increase ±SD TNF-α secretion tested in 2-3 independent experiments. Each ion channel blocker was examined in at least two independent experiments, and at several concentrations covering its effective range (see Materials and Methods). The numbers in each figure next to each blocker represent the highest molar concentration used. Statistical analysis: *P=0.0001, 0.0005, 0.0011 and 0.0005 vs. untreated for MgTX, KTX, DTX-K and PMA, respectively (Student's t-test).

[2] = tested on: human T-cells; conditions: data not shown
[3] = tested on: NF-κB; assay: EMSA for nuclear NF-κB in normal human T-cells; assay type: cell-based; conditions: 100 nM DTX-K
Description: EMSA for Nuclear NF-κB: Nuclear fractions from freshly-isolated normal human T-cells were collected using Nuclear Extract Kit (Active Motif, Carlsbad, Calif.), according to the manufacturer's instructions. NF-κB levels in nuclear fractions were measured using TransAM NF-κB Family Kit (Active Motif), according to the manufacturer's instructions.
In case of the TNF-α gene, the observed importance of NF-κB for the expression of the TNFα gene may depend on the cell type and the segment of the enhancer/promoter analyzed (Siebenlist et al, 1990). On these grounds, we investigated whether block of Kv1.1 channels in normal human T-cells (once again, in the complete absence of any other stimuli) can affect NF-κB. […]
Nuclear extracts were […] for several time periods, of which only 7 min is shown. The results, expressed as OD±SD, reflect the amount of NF-κB bound to nuclear NF-κB-binding sequences, as determined by commercially available EMSA. […]

[4] = biological target: T1, Kv1.1 (Homo sapiens, UniProt Q09470); conditions: Gutman et al, 2003; cited from earlier work
T1 sequence (Q09470 whole entry): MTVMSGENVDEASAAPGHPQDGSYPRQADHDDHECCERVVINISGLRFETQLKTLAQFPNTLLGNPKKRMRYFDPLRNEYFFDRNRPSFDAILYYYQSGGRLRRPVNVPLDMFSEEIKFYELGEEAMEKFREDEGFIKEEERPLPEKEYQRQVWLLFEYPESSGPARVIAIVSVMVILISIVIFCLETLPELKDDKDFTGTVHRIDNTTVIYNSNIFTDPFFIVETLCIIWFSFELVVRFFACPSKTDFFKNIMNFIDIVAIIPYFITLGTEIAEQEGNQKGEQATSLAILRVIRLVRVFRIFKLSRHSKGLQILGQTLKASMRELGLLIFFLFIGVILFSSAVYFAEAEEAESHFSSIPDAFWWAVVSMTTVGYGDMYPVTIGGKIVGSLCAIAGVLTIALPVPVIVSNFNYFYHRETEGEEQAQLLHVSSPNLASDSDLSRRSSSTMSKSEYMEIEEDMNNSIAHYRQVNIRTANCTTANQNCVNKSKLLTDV

[5] = biological target: T1, Kv1.1; conditions: cited from earlier work

## Dendrotoxin-K (AAKYCKLPLRIGPCKRKIPSFYYKWKAKQCLPFDYSGCGGNANRFKTIEECRRTCVG) [DTX-K]
[1]; 100 nM DTX-K, 24 hours, FIG. 2B
  IFN-γ secretion: not affecting
[1]; 100 nM DTX-K, 24 hr, FIG. 2A
  TNFα secretion: elevated
[1]; 100 nM DTX-K, 72 hours, FIG. 2C
  IL-10 secretion: not affecting
[1]; 100 nM DTX-K, 72 hours, FIG. 2D
  IL-4 secretion: not affecting
[1]; 100 nM DTX-K, after 16 hours, individuals 4 and 5
  TNFα secretion, time course: significantly elevated
[1]; 100 nM DTX-K, after 72 hours, individuals 4 and 5
  TNF-α secretion, time course: remained significantly high
[1]; DTX-K either during or after TCR-activation, data not shown
  additional elevation in TNFα levels beyond TCR-activation alone: did not cause additional elevation
[1]; FIG. 1A, 24 hours, DTX-K 100 nM, other blockers at highest concentration used, no other stimulus
  fold increase in TNFα secretion: 33.4 fold increase
[1]; FIG. 1B, 24 hour exposure, 100 nM DTX-K
  fold increase in TNFα secretion: 8.7 fold
[1]; FIG. 1B, 24 hour exposure, 1 μM DTX-K
  fold increase in TNFα secretion: 39.5 fold
[1]; individual 1 (FIG. 1C), 24 hours, 100 nM
  fold increase TNF-α secretion: 22.3 fold
[1]; individual 2 (FIG. 1D), 24 hours, 100 nM
  fold increase TNF-α secretion: 8.7 fold
[1]; individual 3 (FIG. 1E), 24 hours, 100 nM
  fold increase TNF-α secretion: 49.0 fold
[1]; individual 4 (FIG. 1F), 24 hours, 100 nM
  fold increase TNF-α secretion: 34.4 fold
[1]; individual 4 (FIG. 1F), 24 hours, 100 nM, untreated 38 pg/ml
  TNF-α secreted to the culture media: 1308 pg/mL
[1]; individual 5 (FIG. 1G), 24 hours, 100 nM
  fold increase TNF-α secretion: 2.4 fold
[1]; individual 6 (FIG. 1H), 24 hours, 100 nM
  fold increase TNF-α secretion: 2.0 fold
[2]
  effect on cell survival or proliferation: no significant effect
[3]; 7 minutes, FIG. 3B
  level of NF-κB present in the nuclear extracts: significantly augmented
[3]; several later time points, data not shown
  elevation of nuclear NF-κB at later time points: no longer detected
[4]
  Ki: 0.016 nM
[5]
  active concentration, Kv1.1 channel block: picomolar concentrations
